Assay: Exenatide delivery from liquid patch with permeability enhancer through microporated abdomen
Details: hairless rat abdomen microporated; patch with 20 OuL solution of exenatide (10.5 mg/mL) and agent (3% w/v); fresh solution every four hours

O=C([O-])CC(O)(CC(=O)[O-])C(=O)O.[Na+].[Na+] [disodium citrate]
exenatide levels over 24 hours: roughly steady levels

From patent US10493254B2, “Permeant delivery system and methods for use thereof” (priority 2008, dated 2019)
